Assay results from ChEMBL document CHEMBL5236661, “A new selective inhibitor for IMP-1 metallo-β-lactamase, 3Z,5E-octa-3,5-diene-1,3,4-tricarboxylic acid-3,4-anhydride” (Bioorg Med Chem, 2023).
In brackets after ≈: the same amount, converted by molar mass. Activity calls are given as the source filed them. The calls are words filed in the database; no cut-off is given here.

How the values were obtained:
[1] = tested on: Escherichia coli; assay: Antibacterial activity against Escherichia coli KB366 expressing IMP-1 assessed as inhibition of bacterial growth at 0.03 ug in absence of meropenem incubated overnight by paper disk method; assay type: functional, organism-based; conditions: dose 0.03 µg
[2] = tested on: Escherichia coli; assay: Antibacterial activity against Escherichia coli KB366 expressing IMP-1 assessed as inhibition of bacterial growth at 3 ug in presence of meropenem incubated overnight by paper disk method; assay type: functional; conditions: read-out: IZ
[3] = tested on: Escherichia coli; assay: Antibacterial activity against Escherichia coli KB366 expressing IMP-1 assessed as inhibition of bacterial growth at 30 ug in absence of meropenem incubated overnight by paper disk method; assay type: functional, organism-based; conditions: dose 30.0 µg
[4] = tested on: Escherichia coli; assay: Antibacterial activity against Escherichia coli KB366 expressing IMP-1 assessed as inhibition of bacterial growth at 3 ug in absence of meropenem incubated overnight by paper disk method; assay type: functional, organism-based; conditions: dose 3.0 µg
[5] = tested on: Escherichia coli; assay: Antibacterial activity against Escherichia coli KB366 expressing IMP-1 assessed as inhibition of bacterial growth at 0.3 ug in absence of meropenem incubated overnight by paper disk method; assay type: functional, organism-based; conditions: dose 0.3 µg
[6] = tested on: Pseudomonas aeruginosa; assay: Antibacterial activity against Pseudomonas aeruginosa KB367 expressing IMP-1 assessed as inhibition of bacterial growth at 30 ug in absence of meropenem incubated overnight by paper disk method; assay type: functional, organism-based; conditions: dose 30.0 µg
[7] = tested on: Escherichia coli; assay: Antibacterial activity against Escherichia coli KB366 expressing IMP-1 assessed as inhibition of bacterial growth at 1 ug in absence of meropenem incubated overnight by paper disk method; assay type: functional, organism-based; conditions: dose 1.0 µg
[8] = tested on: Escherichia coli; assay: Antibacterial activity against Escherichia coli KB366 expressing IMP-1 assessed as inhibition of bacterial growth at 0.1 ug in presence of meropenem incubated overnight by paper disk method; assay type: functional
[9] = tested on: Pseudomonas aeruginosa; assay: Antibacterial activity against Pseudomonas aeruginosa KB367 expressing IMP-1 assessed as inhibition of bacterial growth at 0.3 ug in presence of meropenem incubated overnight by paper disk method; assay type: functional, organism-based; conditions: dose 0.3 µg
[10] = tested on: Escherichia coli; assay: Antibacterial activity against Escherichia coli KB366 expressing IMP-1 assessed as inhibition of bacterial growth at 0.01 ug in presence of meropenem incubated overnight by paper disk method; assay type: functional
[11] = tested on: Pseudomonas aeruginosa; assay: Antibacterial activity against Pseudomonas aeruginosa KB367 expressing IMP-1 assessed as inhibition of bacterial growth at 0.1 ug in presence of meropenem incubated overnight by paper disk method; assay type: functional, organism-based; conditions: dose 0.1 µg
[12] = tested on: Pseudomonas aeruginosa; assay: Antibacterial activity against Pseudomonas aeruginosa KB367 expressing IMP-1 assessed as inhibition of bacterial growth at 3 ug in absence of meropenem incubated overnight by paper disk method; assay type: functional, organism-based; conditions: dose 3.0 µg
[13] = tested on: Pseudomonas aeruginosa; assay: Antibacterial activity against Pseudomonas aeruginosa KB367 expressing IMP-1 assessed as inhibition of bacterial growth at 10 ug in absence of meropenem incubated overnight by paper disk method; assay type: functional, organism-based; conditions: dose 10.0 µg
[14] = tested on: Escherichia coli; assay: Antibacterial activity against Escherichia coli KB366 expressing IMP-1 assessed as inhibition of bacterial growth at 0.3 ug in presence of meropenem incubated overnight by paper disk method; assay type: functional; conditions: read-out: IZ
[15] = tested on: Escherichia coli; assay: Antibacterial activity against Escherichia coli KB366 expressing IMP-1 assessed as inhibition of bacterial growth at 10 ug in presence of meropenem incubated overnight by paper disk method; assay type: functional; conditions: read-out: IZ
[16] = tested on: Pseudomonas aeruginosa; assay: Antibacterial activity against Pseudomonas aeruginosa KB367 expressing IMP-1 assessed as inhibition of bacterial growth at 0.3 ug in absence of meropenem incubated overnight by paper disk method; assay type: functional, organism-based; conditions: dose 0.3 µg
[17] = tested on: Pseudomonas aeruginosa; assay: Antibacterial activity against Pseudomonas aeruginosa KB367 expressing IMP-1 assessed as inhibition of bacterial growth at 1 ug in absence of meropenem incubated overnight by paper disk method; assay type: functional, organism-based; conditions: dose 1.0 µg
[18] = tested on: Escherichia coli; assay: Antibacterial activity against Escherichia coli KB366 expressing IMP-1 assessed as inhibition of bacterial growth at 0.01 ug in absence of meropenem incubated overnight by paper disk method; assay type: functional, organism-based; conditions: dose 0.01 µg
[19] = tested on: Escherichia coli; assay: Antibacterial activity against Escherichia coli KB366 expressing IMP-1 assessed as inhibition of bacterial growth at 0.03 ug in presence of meropenem incubated overnight by paper disk method; assay type: functional
[20] = tested on: Pseudomonas aeruginosa; assay: Antibacterial activity against Pseudomonas aeruginosa KB367 expressing IMP-1 assessed as inhibition of bacterial growth at 3 ug in presence of meropenem incubated overnight by paper disk method; assay type: functional; conditions: dose 3.0 µg
[21] = tested on: Pseudomonas aeruginosa; assay: Antibacterial activity against Pseudomonas aeruginosa KB367 expressing IMP-1 assessed as inhibition of bacterial growth at 30 ug in presence of meropenem incubated overnight by paper disk method; assay type: functional; conditions: for zone of inhibition at 30 µg/disc: read-out: IZ
[22] = tested on: Escherichia coli; assay: Antibacterial activity against Escherichia coli KB366 expressing IMP-1 assessed as inhibition of bacterial growth at 0.1 ug in absence of meropenem incubated overnight by paper disk method; assay type: functional, organism-based; conditions: dose 0.1 µg
[23] = tested on: Escherichia coli; assay: Antibacterial activity against Escherichia coli KB366 expressing IMP-1 assessed as inhibition of bacterial growth at 1 ug in presence of meropenem incubated overnight by paper disk method; assay type: functional; conditions: read-out: IZ
[24] = tested on: Pseudomonas aeruginosa; assay: Antibacterial activity against Pseudomonas aeruginosa KB367 expressing IMP-1 assessed as inhibition of bacterial growth at 10 ug in presence of meropenem incubated overnight by paper disk method; assay type: functional; conditions: for inhibition zone (IZ): dose 10.0 µg
[25] = tested on: Pseudomonas aeruginosa; assay: Antibacterial activity against Pseudomonas aeruginosa KB367 expressing IMP-1 assessed as inhibition of bacterial growth at 0.1 ug in absence of meropenem incubated overnight by paper disk method; assay type: functional, organism-based; conditions: dose 0.1 µg
[26] = tested on: Pseudomonas aeruginosa; assay: Antibacterial activity against Pseudomonas aeruginosa KB367 expressing IMP-1 assessed as inhibition of bacterial growth at 1 ug in presence of meropenem incubated overnight by paper disk method; assay type: functional; conditions: dose 1.0 µg
[27] = tested on: Pseudomonas aeruginosa; assay: Antibacterial activity against Pseudomonas aeruginosa KB367 expressing IMP-1 assessed as inhibition of bacterial growth at 100 ug in absence of meropenem incubated overnight by paper disk method; assay type: functional, organism-based; conditions: dose 100.0 µg
[28] = tested on: Escherichia coli; assay: Antibacterial activity against Escherichia coli KB366 expressing IMP-1 assessed as inhibition of bacterial growth at 10 ug in absence of meropenem incubated overnight by paper disk method; assay type: functional, organism-based; conditions: dose 10.0 µg
[29] = Inhibition of bacterial Metallo-beta-lactamase IMP-1 using nitrocefin as substrate pre-incubated for 15 mins followed by substrate addition by microplate reader; design: species or system Bacteria
[30] = tested on: Escherichia coli; assay: Antibacterial activity against Escherichia coli KB366 expressing IMP-1 assessed as inhibition of bacterial growth at 100 ug in absence of meropenem incubated overnight by paper disk method; assay type: functional, organism-based; conditions: dose 100.0 µg
[31] = tested on: Escherichia coli; assay: Antibacterial activity against Escherichia coli KB366 expressing IMP-1 assessed as inhibition of bacterial growth at 100 ug in presence of meropenem incubated overnight by paper disk method; assay type: functional; conditions: read-out: IZ
[32] = tested on: Escherichia coli; assay: Antibacterial activity against Escherichia coli KB366 expressing IMP-1 assessed as inhibition of bacterial growth at 30 ug in presence of meropenem incubated overnight by paper disk method; assay type: functional; conditions: read-out: IZ
[33] = tested on: Pseudomonas aeruginosa; assay: Antibacterial activity against Pseudomonas aeruginosa KB367 expressing IMP-1 assessed as inhibition of bacterial growth at 100 ug in presence of meropenem incubated overnight by paper disk method; assay type: functional

IC50 [29]	SMILES	zone of inhibition at 3 µg/disc [2]	inhibition zone (IZ) [3]	inhibition zone (IZ) [4]	inhibition zone (IZ) [5]	inhibition zone (IZ) [6]	inhibition zone (IZ) [7]	inhibition zone (IZ) [9]	inhibition zone (IZ) [11]	inhibition zone (IZ) [12]	inhibition zone (IZ) [13]	zone of inhibition at 0.3 µg/disc [14]	zone of inhibition at 10 µg/disc [15]	inhibition zone (IZ) [16]	inhibition zone (IZ) [17]	inhibition zone (IZ) [20]	zone of inhibition at 1 µg/disc [23]	inhibition zone (IZ) [25]	inhibition zone (IZ) [26]	inhibition zone (IZ) [27]	further results
3 µg/mL (≈ 15.4 µM)	CC/C=C/C1=C(CCC)C(=O)OC1=O	18 mm	inactive	inactive	inactive	inactive	inactive	inactive	inactive	inactive	inactive	15 mm	24 mm	inactive	inactive	inactive	17 mm	inactive	inactive	inactive	inhibition zone (IZ) [1]: inactive; zone of inhibition at 0.1 µg/disc ([8]; read-out: IZ): 13 mm; zone of inhibition at 0.01 µg/disc ([10]; read-out: IZ): 9 mm; inhibition zone (IZ) [18]: inactive; zone of inhibition at 0.03 µg/disc ([19]; read-out: IZ): 9 mm; zone of inhibition at 30 µg/disc [21]: 10 mm; inhibition zone (IZ) [22]: inactive; inhibition zone (IZ) [24]: inactive; inhibition zone (IZ) [28]: inactive
1.46 µg/mL (≈ 5.57 µM)	CCCCC1=C(c2ccc(O)c(O)c2)C(=O)OC1=O	20 mm	inactive	inactive	inactive	inactive	inactive	inactive	inactive	inactive	inactive	13 mm	22 mm	inactive	inactive	inactive	17 mm	inactive	inactive	inactive	inhibition zone (IZ) [1]: inactive; inhibition zone (IZ) [30]: inactive; inhibition zone (IZ) ([8]; dose 0.1 µg): inactive; zone of inhibition at 100 µg/disc [31]: 29 mm; inhibition zone (IZ) ([10]; dose 0.01 µg): inactive; zone of inhibition at 30 µg/disc [32]: 25 mm; inhibition zone (IZ) [18]: inactive; inhibition zone (IZ) ([19]; dose 0.03 µg): inactive; zone of inhibition at 30 µg/disc [21]: 14 mm; zone of inhibition at 100 µg/disc ([33]; read-out: IZ): 19 mm; inhibition zone (IZ) [22]: inactive; zone of inhibition at 10 µg/disc ([24]; read-out: IZ): 9 mm; inhibition zone (IZ) [28]: inactive
9.49 µg/mL (≈ 27.2 µM)	CC/C=C/C1=C(c2ccc(OCOC)c(OCOC)c2)C(=O)OC1=O	16 mm	inactive	inactive	inactive	inactive	inactive	inactive	inactive	inactive	inactive	11 mm	20 mm	inactive	inactive	inactive	14 mm	inactive	inactive	inactive	inhibition zone (IZ) [30]: inactive; zone of inhibition at 100 µg/disc [31]: 27 mm; zone of inhibition at 30 µg/disc [32]: 23 mm; inhibition zone (IZ) ([21]; dose 30.0 µg): inactive; inhibition zone (IZ) ([33]; dose 100.0 µg): inactive; inhibition zone (IZ) [24]: inactive; inhibition zone (IZ) [28]: inactive
67.3 µg/mL (≈ 300 µM)	CC/C=C/C1=C(CCC(=O)O)C(=O)OC1=O																				
